The target of one data set is T1, CAI (Homo sapiens, UniProt P00915).
T1 construct: made in house; host or cells: E. coli
As to the kind of experiment: biochemical. It is filed as binding. As to conditions: FTSA.

For another data set, the target named is T2, CAII (Homo sapiens, UniProt P00918).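 Note: recombinant human CAII, thermal shift with ANS dye fluorescence, Kd_obs from fitting melting temperature versus ligand concentration, intrinsic values corrected for deprotonated sulfonamide and Zn-bound water fractions.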
T2 construct: made in house; host or cells: E. coli
The data set is described as follows: biochemical. The data set is classed as binding. As to conditions: FTSA.

Another data set addresses T3, CAIX (Homo sapiens, UniProt Q16790).
T3 construct: made in house
The data set is described as follows: biochemical. It is filed as binding. As to conditions: FTSA.

The target of a further data set is T4, CAXII (Homo sapiens, UniProt O43570).
T4 construct: made in house; host or cells: E. coli
T4 sequence (O43570 25-354): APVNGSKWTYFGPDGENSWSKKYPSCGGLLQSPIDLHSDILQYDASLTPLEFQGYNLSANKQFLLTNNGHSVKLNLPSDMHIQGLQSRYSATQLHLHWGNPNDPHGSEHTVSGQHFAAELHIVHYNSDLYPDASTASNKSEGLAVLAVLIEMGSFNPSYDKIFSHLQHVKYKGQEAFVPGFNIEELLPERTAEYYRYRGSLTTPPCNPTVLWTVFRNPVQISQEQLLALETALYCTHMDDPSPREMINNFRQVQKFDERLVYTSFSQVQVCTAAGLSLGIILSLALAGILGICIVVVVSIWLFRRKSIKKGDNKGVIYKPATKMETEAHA
The data set is described as follows: biochemical. The following applies: FTSA. The data set is classed as binding.

The next data set deals with CAXIII (Homo sapiens, UniProt Q8N1Q1). The data set is described as follows: biochemical. As to conditions: FTSA.
Sequence of CAXIII (Q8N1Q1 whole entry): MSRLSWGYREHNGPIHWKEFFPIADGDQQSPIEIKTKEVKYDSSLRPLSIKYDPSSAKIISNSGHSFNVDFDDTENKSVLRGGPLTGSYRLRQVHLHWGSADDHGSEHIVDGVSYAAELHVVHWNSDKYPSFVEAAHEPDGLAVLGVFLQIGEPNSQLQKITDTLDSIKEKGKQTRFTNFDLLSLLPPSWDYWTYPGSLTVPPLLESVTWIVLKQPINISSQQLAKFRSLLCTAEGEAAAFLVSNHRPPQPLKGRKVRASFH
[1] abbreviates: pH 7.0, 37 °C, read-out: Observed Dissociation Constant (Kd_obs), CAI.
The mark [2] stands for this setting: pH 7.0, 37 °C, read-out: Observed Dissociation Constant (Kd_obs), CAII.
Where [3] appears, read: pH 7.0, 37 °C, read-out: Observed Dissociation Constant (Kd_obs), CAIX.
Setting [4] is: pH 7.0, 37 °C, read-out: Observed Dissociation Constant (Kd_obs), CAXII.
[5] abbreviates: Observed Dissociation Constant (Kd_obs), pH 7.0, 37 °C.

A word on the melting point: it is the temperature of the solid-liquid transition.

Molecules are shown by their SMILES. pKd: −log10 of the molar value. Values joined by “and” are separate entries in the source; they are usually repeats but may differ in a detail not shown here. Equal values may be shown once. Read-outs that look alike come from different tables or passages of the source.
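Throughout, for Observed Dissociation Constant (Kd obs), CAXII: recombinant CAXII made in E. coli, ANS-fluorescence thermal shift with affinity fitted from Tm versus ligand concentration, intrinsic energy from Kd_obs corrected for deprotonated sulfonamide and Zn-water fractions.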

T1 sequence (P00915 whole entry): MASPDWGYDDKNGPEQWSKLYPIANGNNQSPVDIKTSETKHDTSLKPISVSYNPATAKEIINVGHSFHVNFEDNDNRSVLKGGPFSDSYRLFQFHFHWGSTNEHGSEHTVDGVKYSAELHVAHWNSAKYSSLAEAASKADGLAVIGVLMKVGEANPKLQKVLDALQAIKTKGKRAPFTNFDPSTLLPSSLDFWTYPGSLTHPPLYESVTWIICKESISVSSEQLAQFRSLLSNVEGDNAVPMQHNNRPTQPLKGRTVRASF
Procedure for CAII: (§1) Human CA isozymes were expressed in E. coli (CAI, II, III, IV, VA, VB, VII, XII, XIII, XIV) or mammalian cells (CAVI and CAIX), chromatographically purified following the published protocols [47], and stored at −80 °C. The protein concentration was determined by UV absorption at 280 nm using Beer–Lambert law.
(§2) The QIAGEN Rotor-Gene Q was used to carry out the experiments, with a blue channel used for excitation (365 nm) and detection (460 nm). FTSA in this case relies on an extrinsic probe, 8-anilino-1-naphthalenesulfonate (ANS), to detect the fluorescence increase during protein denaturation, from which protein melting temperature (Tm) can be determined. […] The observed affinity of ligands for CAs was determined by plotting the Tm as a function of ligand concentration and then fitting a curve as described previously [48]. […] Samples were heated from 25 °C to 99 °C at the speed of 1 °C/min.
(§3) The intrinsic thermodynamic parameters were calculated as described in [40]. The intrinsic reaction of inhibitor binding to CA is shown in Equation (1).
(§4) When calculating Kd_int values, these protein and ligand fractions from Equation (1) have to be accounted for (Equations (2) and (3)). The intrinsic dissociation constant is calculated by multiplying Kd_obs value by the corresponding fractions of protein and ligand (Equation (4)). (2) fRSO2NH^−=10^pH−pKa_RSO2NH2/1+10^pH−pKa_RSO2NH2 (3) fCAZnH2O=1−10^pH−pKa_CAZnH2O/1+10^pH−pKa_CAZnH2O (4) Kd_int=Kd_obs×fRSO2NH^−×fCAZnH2O (5) ΔGint0=RTlnKd_int
(§5) The intrinsic standard Gibbs energy changes upon binding were calculated using Equation (5). Here, R—universal ideal gas constant (8.3144 J/mol·K), T—absolute temperature (310.15 K).
Procedure for CAIX: as §1, §2, §3, §4, §5

The compound `NS(=O)(=O)c1ccc(NCC(CC(=O)NN=Cc2cccc(Cl)c2)C(=O)NN=Cc2cccc(Cl)c2)c(Cl)c1` (stereo not shown) [Compound 11b, 3-Chloro-4-((2-(2-(3-chlorobenzylidene)hydrazine-1-carbonyl)-4-(2-(3-chlorobenzylidene)hydrazineyl)-4-oxobutyl)amino)benzenesulfonamide] returned a melting point of 175 to 176 °C. On CAI (setting [1]), the pKd is 5.60. Moreover, the pKd on CAII (setting [2]) was 6.48. Further, the pKd at CAIX (setting [3]) was 6.89. Further, the pKd at CAXII (setting [4]) was 4.48. At CAXIII (setting [5]), this compound gave a pKd of 6.48.
In the case of `COc1ccc(C=NNC(=O)CC(CNc2ccc(S(N)(=O)=O)cc2)C(=O)NN=Cc2ccc(OC)cc2)cc1` (stereo not shown) [Compound 14a, 4-((2-(2-(4-Methoxybenzylidene)hydrazine-1-carbonyl)-4-(2-(4-methoxybenzylidene)hydrazineyl)-4-oxobutyl)amino)benzenesulfonamide], the melting point lay within 168 to 169 °C. On CAI (setting [1]), the pKd is 4.49. In addition, the pKd at CAII (setting [2]) was 5.47. For the same compound, on CAIX (setting [3]), the pKd was 5.85. Besides, at CAXII (setting [4]), the pKd is 4.42. This compound had a pKd at CAXIII (setting [5]) of 4.64.
In turn, `NNC(=O)CC(CNc1ccc(S(N)(=O)=O)cc1)C(=O)NN` (stereo not shown) [Compound 2a, 4-((2-(Hydrazinecarbonyl)-4-hydrazineyl-4-oxobutyl)amino)benzenesulfonamide] came in with a melting point of 164 to 165 °C. Also, the pKd on CAI (setting [1]) was 4.11. Besides, the pKd on CAI (read-out: Kd_obs, CAI) was 3.89 to 6.08. The pKd on CAII (setting [2]) is 4.85. The pKd at CAII (read-out: Kd_obs, CAII) is 3.89 to 6.08. In addition, the pKd at CAIX (setting [3]) was 5.40. Also, the pKd on CAIX (read-out: Kd_obs, CAIX) was 3.89 to 6.08. The pKd on CAXII (setting [4]) is 4.15. For the same compound, on CAXII (read-out: Kd_obs, CAXII), the pKd was 3.89 to 6.08. Moreover, the pKd at CAXIII (Kd_obs) is 3.89 to 6.08. This compound showed a pKd at CAXIII (setting [5]) of 3.89.
In turn, `COc1ccc(C=NNC(=O)CC(CNc2ccc(S(N)(=O)=O)cc2Cl)C(=O)NN=Cc2ccc(OC)cc2)cc1` (stereo not shown) [Compound 14b, 3-Chloro-4-((2-(2-(4-methoxybenzylidene)hydrazine-1-carbonyl)-4-(2-(4-methoxybenzylidene)hydrazineyl)-4-oxobutyl)amino)benzenesulfonamide] had a melting point of 198 to 199 °C. The pKd at CAI (setting [1]) was 6.29. The pKd at CAII (setting [2]) was 7.23. Moreover, the pKd on CAIX (setting [3]) was 6.54. In addition, the pKd on CAXII (setting [4]) was 5.00. Moreover, the pKd at CAXIII (setting [5]) is 7.18.
Turning to `NS(=O)(=O)c1ccc(NCC(CC(=O)NN=Cc2cccc(O)c2)C(=O)NN=Cc2cccc(O)c2)c(Cl)c1` (stereo not shown) [Compound 8b, 3-Chloro-4-((2-(2-(3-hydroxybenzylidene)hydrazine-1-carbonyl)-4-(2-(3-hydroxybenzylidene)hydrazineyl)-4-oxobutyl)amino)benzenesulfonamide], the melting point lay in the range of 119 to 120 °C. Further, on CAI (setting [1]), the pKd was 6.00. On CAII (setting [2]), the pKd was 6.60. In addition, the pKd at CAIX (setting [3]) was 7.00. Further, the pKd at CAXII (setting [4]) is 4.70. The compound also had a pKd at CAXIII (setting [5]) of 6.70.
The compound `NS(=O)(=O)c1ccc(NCC(CC(=O)NN=Cc2ccc([N+](=O)[O-])cc2)C(=O)NN=Cc2ccc([N+](=O)[O-])cc2)cc1` (stereo not shown) [Compound 17a, 4-((2-(2-(4-Nitrobenzylidene)hydrazine-1-carbonyl)-4-(2-(4-nitrobenzylidene)hydrazineyl)-4-oxobutyl)amino)benzenesulfonamide] gave a melting point of 256 to 257 °C. For the same compound, the pKd on CAI (setting [1]) was 4.44. The pKd on CAII (setting [2]) is 5.27. Further, the pKd on CAIX (setting [3]) is 5.48. Further, at CAXII (setting [4]), the pKd is 4.10. This compound also gave a pKd on CAXIII (setting [5]) of 4.72.
Take `NS(=O)(=O)c1ccc(NCC(CC(=O)NN=Cc2ccc(Cl)cc2)C(=O)NN=Cc2ccc(Cl)cc2)c(Cl)c1` (stereo not shown) [Compound 12b, 3-Chloro-4-((2-(2-(4-chlorobenzylidene)hydrazine-1-carbonyl)-4-(2-(4-chlorobenzylidene)hydrazineyl)-4-oxobutyl)amino)benzenesulfonamide]: the melting point was 211 to 212 °C. The pKd on CAI (setting [1]) was 5.17. Moreover, on CAII (setting [2]), the pKd is 5.96. Also, the pKd at CAIX (setting [3]) is 6.17. Also, the pKd at CAXII (setting [4]) was 4.24. Further, the pKd at CAXIII (setting [5]) is 5.82.
Regarding `NS(=O)(=O)c1ccc(NCC(CC(=O)NN=Cc2cccc([N+](=O)[O-])c2)C(=O)NN=Cc2cccc([N+](=O)[O-])c2)cc1` (stereo not shown) [Compound 16a, 4-((2-(2-(3-Nitrobenzylidene)hydrazine-1-carbonyl)-4-(2-(3-nitrobenzylidene)hydrazineyl)-4-oxobutyl)amino)benzenesulfonamide], the melting point fell in the range of 218 to 219 °C. Also, the pKd on CAI (setting [1]) was 4.70. Besides, the pKd at CAII (setting [2]) was 5.40. In addition, the pKd on CAIX (setting [3]) is 5.85. Moreover, the pKd at CAXII (setting [4]) was 4.30. On CAXIII (setting [5]), this compound gave a pKd of 4.85.
As to `NS(=O)(=O)c1ccc(NCC(CC(=O)NNC(=S)Nc2ccccc2)C(=O)NNC(=S)Nc2ccccc2)cc1` (stereo not shown) [Compound 23a, 2,2′-(2-(((4-Sulfamoylphenyl)amino)methyl)succinyl)bis(N-phenylhydrazine-1-carbothioamide)], the melting point was 136 to 137 °C. Also, the pKd at CAI (setting [1]) was 5.40. Also, the pKd on CAII (setting [2]) is 5.70. In addition, the pKd at CAIX (setting [3]) was 6.89. The pKd at CAXII (setting [4]) is 5.66. In addition, on CAXIII (setting [5]), the pKd was 5.00.
On to `NNC(=O)CC(CNc1ccc(S(N)(=O)=O)cc1Cl)C(=O)NN` (stereo not shown) [Compound 2b, 3-Chloro-4-((2-(hydrazinecarbonyl)-4-hydrazineyl-4-oxobutyl)amino)benzenesulfonamide], for which the pKd is 5.17 at CAI (setting [1]); 3.89 to 6.08 on CAI (read-out: Kd_obs, CAI); 5.89 at CAII (setting [2]); 3.89 to 6.08 on CAII (read-out: Kd_obs, CAII); 6.08 at CAIX (setting [3]); 3.89 to 6.08 and 6.08 on CAIX (read-out: Kd_obs, CAIX). For the same compound, the pKd was 4.85 at CAXII (setting [4]); 3.89 to 6.08 at CAXII (read-out: Kd_obs, CAXII); 3.89 to 6.08 at CAXIII (Kd_obs); 5.17 at CAXIII (setting [5]).
In turn, `CC(=NNC(=O)CC(CNc1ccc(S(N)(=O)=O)cc1)C(=O)NN=C(C)c1ccccc1)c1ccccc1` (stereo not shown) [Compound 5a, 4-((4-Oxo-2-(2-(1-phenylethylidene)hydrazine-1-carbonyl)-4-(2-(1-phenylethylidene)hydrazineyl)butyl)amino)benzenesulfonamide] displayed a melting point of 162 to 163 °C. Further, the pKd on CAI (setting [1]) was 5.08. For the same compound, the pKd at CAII (setting [2]) was 5.89. The pKd on CAIX (setting [3]) was 6.23. In addition, on CAXII (setting [4]), the pKd is 6.30. Besides, the pKd on CAXIII (setting [5]) is 5.30.
For `NS(=O)(=O)c1ccc(NCC(CC(=O)NN=Cc2ccccc2)C(=O)NN=Cc2ccccc2)cc1` (stereo not shown) [Compound 6a, 4-((2-(2-(Benzylidene)hydrazine-1-carbonyl)-4-(2-(benzylidene)hydrazineyl)-4-oxobutyl)amino)benzenesulfonamide], the melting point was in the range of 208 to 209 °C. The pKd on CAI (setting [1]) is 4.85. Besides, the pKd at CAII (setting [2]) was 5.74. The pKd at CAIX (setting [3]) is 6.25. Further, the pKd on CAXII (setting [4]) was 4.60. The compound further showed a pKd on CAXIII (setting [5]) of 5.11.
Compound `NS(=O)(=O)c1ccc(NCC(CC(=O)NN=Cc2ccc(F)cc2)C(=O)NN=Cc2ccc(F)cc2)c(Cl)c1` (stereo not shown) [Compound 13b, 3-Chloro-4-((2-(2-(4-fluorobenzylidene)hydrazine-1-carbonyl)-4-(2-(4-fluorobenzylidene)hydrazineyl)-4-oxobutyl)amino)benzenesulfonamide] returned a melting point of 207 to 208 °C. Besides, the pKd at CAI (setting [1]) was 5.59. The pKd on CAII (setting [2]) is 6.41. The pKd at CAIX (Observed Dissociation Constant (Kd_obs), CAIX, pH 7.0, 37 °C) was 6.48. Also, on CAXII (setting [4]), the pKd was 4.64. At CAXIII (setting [5]), this compound showed a pKd of 6.47.
The compound `NS(=O)(=O)c1ccc(NCC(CC(=O)NN=Cc2ccccc2O)C(=O)NN=Cc2ccccc2O)cc1` (stereo not shown) [Compound 7a, 4-((2-(2-(2-Hydroxybenzylidene)hydrazine-1-carbonyl)-4-(2-(2-hydroxybenzylidene)hydrazineyl)-4-oxobutyl)amino)benzenesulfonamide] registered a melting point of 177 to 178 °C. Besides, on CAI (setting [1]), the pKd was 5.17. Besides, the pKd at CAII (setting [2]) was 5.70. For the same compound, on CAIX (setting [3]), the pKd is 6.30. In addition, at CAXII (setting [4]), the pKd was 4.70. This compound gave a pKd at CAXIII (setting [5]) of 5.00.
`Cn1c(CC(CNc2ccc(S(N)(=O)=O)cc2Cl)c2n[nH]c(=S)n2C)n[nH]c1=S` (stereo not shown) [Compound 24b, 4-((2,3-bis(4-Methyl-5-thioxo-4,5-dihydro-1H-1,2,4-triazol-3-yl)propyl)amino)-3-chlorobenzenesulfonamide] came in with a melting point of 151 to 152 °C. The pKd on CAI (setting [1]) is 5.54. Also, the pKd on CAII (setting [2]) is 6.60. In addition, the pKd at CAIX (setting [3]) was 7.23. The pKd on CAXII (setting [4]) is 5.77. On CAXIII (setting [5]), the pKd was 5.89.
Consider `CC(C)=NNC(=O)CC(CNc1ccc(S(N)(=O)=O)cc1Cl)C(=O)NN=C(C)C` (stereo not shown) [Compound 3b, 3-Chloro-4-((4-oxo-2-(2-(propan-2-ylidene)hydrazine-1-carbonyl)-4-(2-(propan-2-ylidene)hydrazineyl)butyl)amino)benzenesulfonamide], for which the pKd was 5.00 on CAI (setting [1]); 5.74 on CAII (setting [2]); 6.17 at CAIX (setting [3]); 4.85 at CAXII (setting [4]); 5.17 at CAXIII (setting [5]).
The corresponding values for `CC(C)=NNC(=O)CC(CNc1ccc(S(N)(=O)=O)cc1)C(=O)NN=C(C)C` (stereo not shown) [Compound 3a, 4-((4-Oxo-2-(2-(propan-2-ylidene)hydrazine-1-carbonyl)-4-(2-(propan-2-ylidene)hydrazineyl)butyl)amino)benzenesulfonamide] are 3.77, 4.89, 5.17, 3.96 and 4.00.

For the origin of these results see paper PMC9033141, “Beta and Gamma Amino Acid-Substituted Benzenesulfonamides as Inhibitors of Human Carbonic Anhydrases” (Pharmaceuticals, 2022).
